# Laboratory results from PubChem BioAssay AID2060899 (Molecular Pharmacology Branch, DTP, NCI, 2025).
# Test system: 565726-208-R1-J5-PDC complex spheroids, growth inhibition
# Assay: Anticancer human tumor 565726-208-R1-J5-PDC patient-derived pancreatic adenocarcinoma cell line growth inhibition [RAS]
# Details: for IC50: curve of first compound; for viability, T/C: stronger effect = lower value
# Summary of the method: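 Agents were tested in combination matrices in half-log decrements from a top concentration at or near clinical Cmax (10 microM if undetermined). Targets were multi-cell spheroids of tumour lines plus HUVEC and MSC stromal cells.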
# 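Note: spheroids exposed to compounds for seven days before readout.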
# 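Throughout, for viability, T/C: 100% = DMSO vehicle control viability.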
smiles,measurement,setting,value
C=CC(=O)N1CCN(c2nc(OCC3CCCN3C)nc3c(F)c(-c4nc(N)cc(C)c4C(F)(F)F)c(Cl)cc23)C(C)C1 (centres undefined) + C#Cc1c(F)ccc2cc(O)cc(-c3ncc4c(N5CC6CCC(C5)N6)nc(OCC56CCCN5CC(F)C6)nc4c3F)c12,IC50,second compound 0.0316 µM,> 1000 nM
same,IC50,second compound 0.1 µM,> 1000 nM
same,IC50,second compound 0.316 µM,> 1000 nM
same,IC50,second compound 1 µM,> 1000 nM
same,IC50,second compound 3.16 µM,> 1000 nM
same,IC50,second compound 10 µM,> 1000 nM
same,"viability, T/C","second compound 0.0316 µM, first compound 0.00316 µM",95.7%
same,"viability, T/C","second compound 0.0316 µM, first compound 0.01 µM",138%
same,"viability, T/C","second compound 0.0316 µM, first compound 0.0316 µM",98.9%
same,"viability, T/C","second compound 0.0316 µM, first compound 0.1 µM",103%
same,"viability, T/C","second compound 0.0316 µM, first compound 0.316 µM",87%
same,"viability, T/C","second compound 0.0316 µM, first compound 1 µM",104%
same,"viability, T/C","second compound 0.1 µM, first compound 0.00316 µM",101%
same,"viability, T/C","second compound 0.1 µM, first compound 0.01 µM",124%
same,"viability, T/C","second compound 0.1 µM, first compound 0.0316 µM",90.8%
same,"viability, T/C","second compound 0.1 µM, first compound 0.1 µM",94.2%
same,"viability, T/C","second compound 0.1 µM, first compound 0.316 µM",110%
same,"viability, T/C","second compound 0.1 µM, first compound 1 µM",106%
same,"viability, T/C","second compound 0.316 µM, first compound 0.00316 µM",94.2%
same,"viability, T/C","second compound 0.316 µM, first compound 0.01 µM",132%
same,"viability, T/C","second compound 0.316 µM, first compound 0.0316 µM",84.7%
same,"viability, T/C","second compound 0.316 µM, first compound 0.1 µM",107%
same,"viability, T/C","second compound 0.316 µM, first compound 0.316 µM",87.7%
same,"viability, T/C","second compound 0.316 µM, first compound 1 µM",113%
same,"viability, T/C","second compound 1 µM, first compound 0.00316 µM",88.8%
same,"viability, T/C","second compound 1 µM, first compound 0.01 µM",113%
same,"viability, T/C","second compound 1 µM, first compound 0.0316 µM",81.3%
same,"viability, T/C","second compound 1 µM, first compound 0.1 µM",77.1%
same,"viability, T/C","second compound 1 µM, first compound 0.316 µM",82.8%
same,"viability, T/C","second compound 1 µM, first compound 1 µM",84.2%
same,"viability, T/C","second compound 3.16 µM, first compound 0.00316 µM",65.5%
same,"viability, T/C","second compound 3.16 µM, first compound 0.01 µM",88.7%
same,"viability, T/C","second compound 3.16 µM, first compound 0.0316 µM",70%
same,"viability, T/C","second compound 3.16 µM, first compound 0.1 µM",65.6%
same,"viability, T/C","second compound 3.16 µM, first compound 0.316 µM",83%
same,"viability, T/C","second compound 3.16 µM, first compound 1 µM",93.5%
same,"viability, T/C","second compound 10 µM, first compound 0.00316 µM",52.3%
same,"viability, T/C","second compound 10 µM, first compound 0.01 µM",73.5%
same,"viability, T/C","second compound 10 µM, first compound 0.0316 µM",78.3%
same,"viability, T/C","second compound 10 µM, first compound 0.1 µM",72.4%
same,"viability, T/C","second compound 10 µM, first compound 0.316 µM",69.5%
same,"viability, T/C","second compound 10 µM, first compound 1 µM",71%
CC1(C)CCC(Nc2ncc(C(F)(F)F)c(-c3c[nH]c4c(P(C)(C)=O)c(C#N)ccc34)n2)CN1 (centres undefined) + C#Cc1c(F)ccc2cc(O)cc(-c3ncc4c(N5CC6CCC(C5)N6)nc(OCC56CCCN5CC(F)C6)nc4c3F)c12,IC50,second compound 0.0316 µM,6.41 nM
same,IC50,second compound 0.1 µM,6.67 nM
same,IC50,second compound 0.316 µM,6.82 nM
same,IC50,second compound 1 µM,7.75 nM
same,IC50,second compound 3.16 µM,11.6 nM
same,IC50,second compound 10 µM,2.98 nM
same,"viability, T/C","second compound 0.0316 µM, first compound 0.000949 µM",87.7%
same,"viability, T/C","second compound 0.0316 µM, first compound 0.003 µM",75.5%
same,"viability, T/C","second compound 0.0316 µM, first compound 0.00949 µM",36.9%
same,"viability, T/C","second compound 0.0316 µM, first compound 0.03 µM",33.9%
same,"viability, T/C","second compound 0.0316 µM, first compound 0.0949 µM",35.6%
same,"viability, T/C","second compound 0.0316 µM, first compound 0.3 µM",36.8%
same,"viability, T/C","second compound 0.1 µM, first compound 0.000949 µM",77.7%
same,"viability, T/C","second compound 0.1 µM, first compound 0.003 µM",64%
same,"viability, T/C","second compound 0.1 µM, first compound 0.00949 µM",44.5%
same,"viability, T/C","second compound 0.1 µM, first compound 0.03 µM",35.6%
same,"viability, T/C","second compound 0.1 µM, first compound 0.0949 µM",39.9%
same,"viability, T/C","second compound 0.1 µM, first compound 0.3 µM",40.6%
same,"viability, T/C","second compound 0.316 µM, first compound 0.000949 µM",75%
same,"viability, T/C","second compound 0.316 µM, first compound 0.003 µM",68.5%
same,"viability, T/C","second compound 0.316 µM, first compound 0.00949 µM",42.5%
same,"viability, T/C","second compound 0.316 µM, first compound 0.03 µM",42.2%
same,"viability, T/C","second compound 0.316 µM, first compound 0.0949 µM",43.7%
same,"viability, T/C","second compound 0.316 µM, first compound 0.3 µM",37.6%
same,"viability, T/C","second compound 1 µM, first compound 0.000949 µM",65.7%
same,"viability, T/C","second compound 1 µM, first compound 0.003 µM",64.6%
same,"viability, T/C","second compound 1 µM, first compound 0.00949 µM",46.1%
same,"viability, T/C","second compound 1 µM, first compound 0.03 µM",44.3%
same,"viability, T/C","second compound 1 µM, first compound 0.0949 µM",54%
same,"viability, T/C","second compound 1 µM, first compound 0.3 µM",43%
same,"viability, T/C","second compound 3.16 µM, first compound 0.000949 µM",60%
same,"viability, T/C","second compound 3.16 µM, first compound 0.003 µM",59.3%
same,"viability, T/C","second compound 3.16 µM, first compound 0.00949 µM",46.5%
same,"viability, T/C","second compound 3.16 µM, first compound 0.03 µM",45.3%
same,"viability, T/C","second compound 3.16 µM, first compound 0.0949 µM",50.4%
same,"viability, T/C","second compound 3.16 µM, first compound 0.3 µM",45.7%
same,"viability, T/C","second compound 10 µM, first compound 0.000949 µM",62.6%
same,"viability, T/C","second compound 10 µM, first compound 0.003 µM",50.2%
same,"viability, T/C","second compound 10 µM, first compound 0.00949 µM",47.2%
same,"viability, T/C","second compound 10 µM, first compound 0.03 µM",47.4%
same,"viability, T/C","second compound 10 µM, first compound 0.0949 µM",52.6%
same,"viability, T/C","second compound 10 µM, first compound 0.3 µM",46.5%
